This passage reports GI50 and TGI results from PubChem BioAssay (NCI).

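In this assay, cells in 96-well plates receive the compound at five concentrations for 48 hours. Endpoints are linearly interpolated between the surrounding concentrations. GI50 = concentration required for 50% inhibition of growth. Definition used: TGI = concentration required for complete inhibition of growth.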

Some test systems named below: OVCAR-3 ovarian; NCI/ADR-RES ovarian; MOLT-4 leukemia; SN12C renal; SK-MEL-2 melanoma; SK-MEL-28 melanoma; SF-295 CNS; HCT-15 colon; IGROV1 ovarian; SR leukemia.
Common to all, as to assay: NCI anticancer screen, dose series, 48 h

Take `C=C1CC[C@@H]2[C@](C)(COC(C)=O)[C@H](OC(C)=O)CC[C@@]2(C)[C@@H]1CC(Nc1ccc(S(=O)(=O)Nc2nccs2)cc1)C1=CCOC1=O` (some centres undefined): the GI50 is 1.88 µM with OVCAR-3 ovarian; 2.97 µM in the assay with NCI/ADR-RES ovarian; 3.68 µM in the assay with MOLT-4 leukemia; 1.87 µM in the assay with SN12C renal; 10.6 µM in the assay with SK-MEL-2 melanoma; 3.95 µM in the assay on SK-MEL-28 melanoma. In addition, the GI50 with SF-295 CNS was 13.8 µM; in the assay with HCT-15 colon it was 1.73 µM; in the assay on IGROV1 ovarian, 4.54 µM; in the assay with SR leukemia, 1.33 µM. The TGI stood at 3.64 µM with OVCAR-3 ovarian; 12.7 µM with NCI/ADR-RES ovarian; 73.2 µM with MOLT-4 leukemia; 4.39 µM in the assay on SN12C renal; 24.4 µM with SK-MEL-2 melanoma; 15.1 µM in the assay with SK-MEL-28 melanoma. Besides, the TGI with SF-295 CNS was 27.2 µM; with HCT-15 colon, 4.12 µM; in the assay with IGROV1 ovarian, 17.1 µM; in the assay on SR leukemia it was more than 100 µM.
In the case of `Nc1n[nH]c(N)c1N=Nc1ccc(O)cc1`, the GI50 is 22.7 µM in the assay on OVCAR-3 ovarian; 22.6 µM with NCI/ADR-RES ovarian; 13.5 µM with MOLT-4 leukemia; 23.3 µM in the assay with SN12C renal; 14.4 µM in the assay on SK-MEL-2 melanoma; 22.1 µM in the assay with SK-MEL-28 melanoma. For the same molecule, the GI50 in the assay with SF-295 CNS was 23.3 µM; with HCT-15 colon, 24.2 µM; with IGROV1 ovarian it was 20.6 µM; in the assay with SR leukemia, 10.3 µM. Moreover, the TGI in the assay with OVCAR-3 ovarian is 69.7 µM; with NCI/ADR-RES ovarian, 92.4 µM; with MOLT-4 leukemia, 91 µM; in the assay on SN12C renal it was more than 100 µM; in the assay with SK-MEL-2 melanoma it was 57 µM; in the assay on SK-MEL-28 melanoma it was 63.8 µM. In addition, the TGI with SF-295 CNS is 82.5 µM; in the assay with HCT-15 colon, 90.6 µM; in the assay on IGROV1 ovarian it was 81.4 µM; with SR leukemia it was 59.8 µM.
Take `O=c1cccc(C#CC#CCCCO)o1`: the GI50 was 1.93 µM in the assay on OVCAR-3 ovarian; 9.47 µM with NCI/ADR-RES ovarian; 4.82 µM with MOLT-4 leukemia; 5.21 µM with SN12C renal; 12.6 µM in the assay on SK-MEL-2 melanoma; 5.85 µM in the assay on SK-MEL-28 melanoma. Also, the GI50 is 13.5 µM in the assay with SF-295 CNS, 2.11 µM in the assay on HCT-15 colon, 2.65 µM in the assay on IGROV1 ovarian and 0.158 µM in the assay on SR leukemia. The TGI is 4.94 µM in the assay on OVCAR-3 ovarian; more than 44.2 µM in the assay with NCI/ADR-RES ovarian; more than 28.8 µM in the assay with MOLT-4 leukemia; 16.7 µM with SN12C renal; more than 100 µM in the assay with SK-MEL-2 melanoma; 22.2 µM with SK-MEL-28 melanoma. Also, the TGI was 28.9 µM in the assay with SF-295 CNS, 5.3 µM in the assay with HCT-15 colon, more than 22.1 µM in the assay with IGROV1 ovarian and 2.37 µM in the assay on SR leukemia.
For the molecule `CCN(CC)CCC(CNc1c(C)cnc2cc(Cl)ccc12)c1ccc(Cl)cc1` (centres undefined), the GI50 in the assay with OVCAR-3 ovarian was 11.9 µM; with NCI/ADR-RES ovarian it was 10.2 µM; with MOLT-4 leukemia it was 5.27 µM; with SN12C renal, 12.8 µM; in the assay on SK-MEL-2 melanoma, 3.91 µM; in the assay with SF-295 CNS, 2.53 µM. Moreover, the GI50 in the assay with SR leukemia is 0.0333 µM. Moreover, the TGI is 25.5 µM with OVCAR-3 ovarian; 23.5 µM in the assay on NCI/ADR-RES ovarian; 23.8 µM with MOLT-4 leukemia; 28.8 µM in the assay on SN12C renal; 14.1 µM in the assay with SK-MEL-2 melanoma; 10.7 µM in the assay with SF-295 CNS. Moreover, the TGI in the assay with SR leukemia was 7.06 µM.
On to `CC(=O)O.CC(=O)O.CC(=O)O.CC(=O)O.[Rh].[Rh]`, for which the GI50 in the assay with OVCAR-3 ovarian was 26.1 µM; in the assay with NCI/ADR-RES ovarian it was 30.2 µM; with MOLT-4 leukemia, 22.6 µM; in the assay on SN12C renal it was 40.3 µM; with SK-MEL-2 melanoma, 30.7 µM; in the assay on SK-MEL-28 melanoma it was 32.3 µM. Also, the GI50 in the assay on HCT-15 colon is 28.5 µM; with IGROV1 ovarian it was 34 µM; in the assay with SR leukemia, 21.1 µM. In addition, the TGI in the assay with OVCAR-3 ovarian was more than 100 µM; in the assay with NCI/ADR-RES ovarian, 92.2 µM; in the assay on MOLT-4 leukemia it was 47 µM; with SN12C renal it was more than 100 µM; with SK-MEL-2 melanoma, 81.4 µM; in the assay on SK-MEL-28 melanoma, 93.8 µM. Further, the TGI came out at 83.9 µM in the assay on HCT-15 colon, 91.1 µM with IGROV1 ovarian and 40.2 µM with SR leukemia.
Take `COc1ccc(Oc2ccccc2NC(=O)CNC(=O)c2cccc3ccccc23)cc1`: the GI50 in the assay on OVCAR-3 ovarian is 0.387 µM; with NCI/ADR-RES ovarian, 0.427 µM; in the assay with MOLT-4 leukemia it was 0.96 µM; in the assay with SN12C renal, 2.3 µM; with SK-MEL-28 melanoma it was 2.27 µM; in the assay on SF-295 CNS it was 0.402 µM. Besides, the GI50 was 0.59 µM with HCT-15 colon, 1.57 µM with IGROV1 ovarian and 0.166 µM in the assay with SR leukemia. For the same molecule, the TGI in the assay on OVCAR-3 ovarian, with NCI/ADR-RES ovarian, in the assay on MOLT-4 leukemia, in the assay with SN12C renal, in the assay with SK-MEL-28 melanoma and with SF-295 CNS was more than 25 µM in each case. The TGI with HCT-15 colon, in the assay on IGROV1 ovarian and with SR leukemia was more than 25 µM in each case.
Regarding `C[C@H]1c2ccccc2CN1CCCOc1cc2c(cc1OCC1CC1)C1(CCCC1)C(N)=N2`, the GI50 is 1.91 µM with OVCAR-3 ovarian; 2.84 µM with NCI/ADR-RES ovarian; 1.4 µM in the assay with MOLT-4 leukemia; 2.59 µM with SN12C renal; 1.87 µM in the assay with SK-MEL-2 melanoma; 1.89 µM in the assay on SF-295 CNS. Further, the GI50 in the assay on HCT-15 colon was 1.46 µM; in the assay with IGROV1 ovarian it was 2.27 µM; in the assay on SR leukemia, 1.15 µM. The TGI with OVCAR-3 ovarian came to 6.86 µM; in the assay on NCI/ADR-RES ovarian, 10.5 µM; in the assay with MOLT-4 leukemia, 4.93 µM; with SN12C renal it was 9.18 µM; in the assay with SK-MEL-2 melanoma, 6.69 µM; with SF-295 CNS, 6.71 µM. The figures for the TGI in the assay with HCT-15 colon, in the assay with IGROV1 ovarian and with SR leukemia were 5.1 µM, 9.11 µM and 2.87 µM, respectively.
With `O=C(Nc1ccccc1Cl)c1cccc(NC2=C(Cl)C(=O)N(Cc3ccccc3)C2=O)c1`, the GI50 was 12.5 µM with OVCAR-3 ovarian; 46.4 µM in the assay with NCI/ADR-RES ovarian; 2.52 µM with MOLT-4 leukemia; 18.6 µM with SK-MEL-28 melanoma; 23.3 µM in the assay on SF-295 CNS; 14.1 µM in the assay on HCT-15 colon. For the same molecule, the GI50 was 0.549 µM in the assay on IGROV1 ovarian and 1.12 µM in the assay on SR leukemia. Moreover, the TGI is 33.3 µM with OVCAR-3 ovarian; more than 100 µM in the assay on NCI/ADR-RES ovarian; more than 100 µM in the assay with MOLT-4 leukemia; 6.38 µM in the assay with SK-MEL-2 melanoma; more than 100 µM in the assay on SK-MEL-28 melanoma; 92.3 µM in the assay with SF-295 CNS. In addition, the TGI in the assay with HCT-15 colon was more than 100 µM; in the assay on IGROV1 ovarian, 2.29 µM; in the assay on SR leukemia, 3.39 µM.
With `O=NN(CCCl)C(=O)NC1CCC(=O)NC1=O` (centres undefined), the TGI was more than 1160 µM in the assay with OVCAR-3 ovarian; 710 µM with NCI/ADR-RES ovarian; 329 µM in the assay on MOLT-4 leukemia; 405 µM in the assay with SK-MEL-2 melanoma; 1030 µM with SK-MEL-28 melanoma; 331 µM with SF-295 CNS. Besides, the TGI in the assay on HCT-15 colon came out at 846 µM; with IGROV1 ovarian it was 1140 µM; in the assay with SR leukemia it was 674 µM.
